Measured values as given in US7435837B2, “Dihydrobenzofuranyl alkanamine derivatives and methods for using same” (Wyeth, priority 2003, dated 2008).
Values joined by “and” are separate entries in the source; they are usually repeats but may differ in a detail not shown here. Equal values may be shown once. Where a name gives a salt, the structure may show the parent alone.

| SMILES | melting point |
| --- | --- |
| NCC1Cc2ccc(-c3ccccc3)cc2O1 (racemic) (as salt: hydrobromid) [Example 31, (±)-(6-phenyl-2,3-dihydro-1-benzofuran-2-yl)methanamine] | 218 to 221 °C |
| Cc1ccccc1-c1cc(C#N)cc2c1OC(CN)C2 (racemic) (as salt: hydrochloride) [Example 311, (±)-2-(aminomethyl)-7-(2-methylphenyl)-2,3-dihydro-1-benzofuran-5-carbonitrile] | 127 to 129 °C |
| COc1ccc(-c2cccc3c2OC(CN)C3)c(OC)c1 (single isomer, unassigned; (-)) (as salt: hydrochloride) [Example 144, (−)-1-[7-(2,4-dimethoxyphenyl)-2,3-dihydro-1-benzofuran-2-yl]methanamine] | 166 to 168 °C |
| NCC1Cc2cc(F)cc(-c3ccccc3Cl)c2O1 (racemic) (as salt: hydrochloride) [Example 100, (±)-1-[7-(2-chlorophenyl)-5-fluoro-2,3-dihydro-1-benzofuran-2-yl]methanamine] | > 250 °C (dec.) |
| NCC1Cc2cccc(-c3ccc(Cl)cc3)c2O1 (single isomer, unassigned; (-)) (as salt: hydrobromid) [Example 78, (−)-1-[7-(4-chlorophenyl)-2,3-dihydro-1-benzofuran-2-yl]methanamine] | 233 to 235 °C |
| Cc1cccc(-c2cccc3c2OC(CN)C3)c1C (racemic) (as salt: hydrochloride) [Example 154, (±)-1-[7-(2,3-dimethylphenyl)-2,3-dihydro-1-benzofuran-2-yl]methanamine] | > 225 °C |
| NCC1Cc2cccc(-c3ccccc3C(F)(F)F)c2O1 (single isomer, unassigned; (-)) (as salt: hydrochloride) [Example 54, (−)-1-{7-[2-(trifluoromethyl)phenyl]-2,3-dihydro-1-benzofuran-2-yl}methanamine] | 109 to 111 °C |
| Cc1cccc(-c2cccc3c2OC(CN)C3)c1 (racemic) (as salt: hydrochloride) [Example 41, (±)-1-[7-(3-methylphenyl)-2,3-dihydro-1-benzofuran-2-yl]methanamine] | > 210 °C (dec.) |
| NCC1Cc2c(cccc2-c2ccccc2)O1 (single isomer, unassigned; (-)) (as salt: hydrobromid) [Example 3, (−)-1-(4-phenyl-2,3-dihydro-1-benzofuran-2-yl)methanamine] | 227 to 228 °C |
| NCC1Cc2cc(F)cc(-c3ccccc3C(F)(F)F)c2O1 (racemic) (as salt: hydrochloride) [Example 108, (±)-1-{5-fluoro-7-[2-(trifluoromethyl)phenyl]-2,3-dihydro-1-benzofuran-2-yl}methanamine] | 196 to 198 °C (dec.) |
| NCC1Cc2c(cccc2-c2ccccc2)O1 (racemic) (as salt: hydrochloride) [Example 1, (±)-1-(4-phenyl-2,3-dihydro-1-benzofuran-2-yl)methanamine] | 229 to 230 °C |
| Cc1ccc(Cl)cc1-c1cc(F)cc2c1O[C@@H](CN)C2 (as salt: hydrochloride) [Example 548, {[(2R)-7-(5-chloro-2-methylphenyl)-5-fluoro-2,3-dihydro-1-benzofuran-2-yl]methyl}amine] | 148 to 150 °C |
| NCC1Cc2cccc(-c3c(Cl)cccc3Cl)c2O1 (single isomer, unassigned; (-)) (as salt: hydrochloride) [Example 141, (−)-1-[7-(2,6-dichlorophenyl)-2,3-dihydro-1-benzofuran-2-yl]methanamine] | 207 to 209 °C |
| Cc1ccc(-c2cccc3c2CC(CN)O3)cc1 (racemic) (as salt: hydrochloride) [Example 121, (±)-1-[4-(4-methylphenyl)-2,3-dihydro-1-benzofuran-2-yl]methanamine] | 239 to 241 °C |
| NCC1Cc2cc(F)cc(-c3ccccc3C(F)(F)F)c2O1 (single isomer, unassigned; (+)) (as salt: hydrochloride) [Example 152, (+)-1-{5-fluoro-7-[2-(trifluoromethyl)phenyl]-2,3-dihydro-1-benzofuran-2-yl}methanamine] | 193 to 197 °C |
| NCC1Cc2cccc(-c3ccc(F)cc3)c2O1 (racemic) (as salt: hydrochloride) [Example 73, (±)-1-[7-(4-fluorophenyl)-2,3-dihydro-1-benzofuran-2-yl]methanamine] | 237 to 240 °C |
| COc1cc(Cl)cc2c1OC(CN)C2 (racemic) (as salt: hydrochloride) [Example 111, (±)-1-(5-chloro-7-methoxy-2,3-dihydro-1-benzofuran-2-yl)methanamine] | 195 to 198 °C |
| NCC1Cc2cc(Cl)cc(-c3ccccc3)c2O1 (racemic) (as salt: hydrochloride) [Example 84, (±)-1-(5-chloro-7-phenyl-2,3-dihydro-1-benzofuran-2-yl)methanamine] | 258 °C (dec.) |
| COc1cccc(-c2cccc3c2OC(CN)C3)c1 (single isomer, unassigned; (+)) (as salt: hydrochloride) [Example 133, (+)-1-[7-(3-methoxyphenyl)-2,3-dihydro-1-benzofuran-2-yl]methanamine] | 156 to 158 °C |

| SMILES | melting point |
| --- | --- |
| CC(C)(C)c1cccc2c1OC(CN)C2 (racemic) (as salt: hydrochloride) [Example 24, (±)-1-(7-tert-butyl-2,3-dihydro-1-benzofuran-2-yl)methanamine] | 177 to 180 °C (dec.) |
| Cc1ccccc1-c1cc(Cl)cc2c1OC(CN)C2 (single isomer, unassigned; (+)) (as salt: hydrobromid) [Example 96, (+)-1-[5-chloro-7-(2-methylphenyl)-2,3-dihydro-1-benzofuran-2-yl]methanamine] | 170 to 172 °C |
| NCC1Cc2cc(Cl)cc(-c3ccccc3Cl)c2O1 (racemic) (as salt: hydrochloride) [Example 87, (±)-1-[5-chloro-7-(2-chlorophenyl)-2,3-dihydro-1-benzofuran-2-yl]methanamine] | 231 to 234 °C |
| Cc1cccc(C)c1-c1cccc2c1CC(CN)O2 (racemic) (as salt: hydrochloride) [Example 125, (±)-1-[4-(2,6-dimethylphenyl)-2,3-dihydro-1-benzofuran-2-yl]methanamine] | 254 to 256 °C |
| Cc1cccc(-c2cccc3c2OC(CN)C3)c1 (single isomer, unassigned; (+)) (as salt: hydrochloride) [Example 42, (+)-1-[7-(3-methylphenyl)-2,3-dihydro-1-benzofuran-2-yl]methanamine] | 196 to 198 °C |
| NCC1Cc2cccc(-c3ccccc3F)c2O1 (single isomer, unassigned; (+)) (as salt: hydrochloride) [Example 51, (+)-1-[7-(2-fluorophenyl)-2,3-dihydro-1-benzofuran-2-yl]methanamine] | 227 to 228 °C |
| NCC1Cc2cccc(-c3ccc(F)c(Cl)c3)c2O1 (racemic) (as salt: hydrochloride) [Example 34, (±)-1-[7-(3-chloro-4-fluorophenyl)-2,3-dihydro-1-benzofuran-2-yl]methanamine] | > 210 °C |
| COc1ccccc1-c1cccc2c1OC(CN)C2 (single isomer, unassigned; (+)) (as salt: hydrochloride) [Example 128, (+)-1-[7-(2-methoxyphenyl)-2,3-dihydro-1-benzofuran-2-yl]methanamine] | 180 to 184 °C |
| NCC1Cc2cc(F)cc(-c3ccccc3)c2O1 (racemic) (as salt: hydrochloride) [Example 103, (±)-1-(5-fluoro-7-phenyl-2,3-dihydro-1-benzofuran-2-yl)methanamine] | 255 to 260 °C |
| NCC1Cc2c(cccc2-c2ccccc2)O1 (single isomer, unassigned; (+)) (as salt: hydrobromid) [Example 2, (+)-1-(4-phenyl-2,3-dihydro-1-benzofuran-2-yl)methanamine] | 225 to 226 °C |
| NC[C@H]1Cc2cc(F)cc(-c3c(Cl)cccc3Cl)c2O1 (as salt: hydrochloride) [Example 550, (−)-{[7-(2,6-dichlorophenyl)-5-fluoro-2,3-dihydro-1-benzofuran-2-yl]methyl}amine] | 228 to 230 °C and 231 to 233 °C |
| NCC1Cc2cccc(/C=C/c3ccccc3)c2O1 (racemic) (as salt: hydrochloride) [Example 119, (±)-1-{7-[(E)-2-phenylvinyl]-2,3-dihydro-1-benzofuran-2-yl}methanamine] | 209 to 211 °C |
| NCC1Cc2c(C(F)(F)F)ccc(Cl)c2O1 (racemic) (as salt: hydrochloride) [Example 14, (±)-[7-chloro-4-(trifluoromethyl)-2,3-dihydro-1-benzofuran-2-yl]methanamine] | > 250 °C |
| NCC1Cc2cccc(-c3ccccc3Cl)c2O1 (racemic) (as salt: hydrochloride) [Example 60, (±)-1-[7-(2-chlorophenyl)-2,3-dihydro-1-benzofuran-2-yl]methanamine] | > 250 °C |
| Cc1ccccc1-c1cc(Cl)cc2c1OC(CN)C2 (racemic) (as salt: salt) [Example 95, (±)-1-[5-chloro-7-(2-methylphenyl)-2,3-dihydro-1-benzofuran-2-yl]methanamine] | 160 to 163 °C |
| Cc1ccccc1-c1cccc2c1OC(CN)C2 (racemic) (as salt: hydrochloride) [Example 47, (±)-1-[7-(2-methylphenyl)-2,3-dihydro-1-benzofuran-2-yl]methanamine] | > 200 °C |
| NCC1Cc2cccc(-c3ccsc3)c2O1 (single isomer, unassigned; (+)) (as salt: hydrobromid) [Example 45, (+)-1-(7-thien-3-yl-2,3-dihydro-1-benzofuran-2-yl)methanamine] | 234 to 236 °C |
| NCC1Cc2cccc(-c3ccc(F)cc3)c2O1 (single isomer, unassigned; (-)) (as salt: hydrobromid) [Example 75, (−)-1-[7-(4-fluorophenyl)-2,3-dihydro-1-benzofuran-2-yl]methanamine] | 208 to 210 °C |
